Laboratory results as given in the supplement of paper PMC10307832.

How the values were obtained:
Test in all cases: relative viability (nuclei count vs DMSO), 5 days (fraction); higher = more cells survive
AT-7519 + Phenformin = compound: O=C(NC1CCNCC1)c1n[nH]cc1NC(=O)c1c(Cl)cccc1Cl [AT-7519] + N=C(N)NC(=N)NCCc1ccccc1 [Phenformin] (partner 250 µM)
Outline: (§1)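 Relative viability divides the nuclei count in treated wells by that in vehicle wells. Lung cancer cell lines were seeded in 1536-well plates, dosed by pin tool the next day, and fixed and stained after 5 days in one step with final 0.05% Triton X-100, 1% formaldehyde and 1 ug/ml Hoechst. Dosing was a single drug or a fixed anchor-drug dose plus five library-drug doses (not always all listed) in √10 steps, and values are medians of duplicate plates imaged at 4×.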

AT-7519 + Palbociclib = compound: O=C(NC1CCNCC1)c1n[nH]cc1NC(=O)c1c(Cl)cccc1Cl [AT-7519] + CC(=O)c1c(C)c2cnc(Nc3ccc(N4CCNCC4)cn3)nc2n(C2CCCC2)c1=O [Palbociclib] (partner 0.5 µM)
Outline: as §1

AT-7519 + Luminespib = compound: O=C(NC1CCNCC1)c1n[nH]cc1NC(=O)c1c(Cl)cccc1Cl [AT-7519] + CCNC(=O)c1noc(-c2cc(C(C)C)c(O)cc2O)c1-c1ccc(CN2CCOCC2)cc1 [Luminespib] (partner 0.01 µM)
Outline: as §1

[1] = compound: C1=CC2=C(C=C(C(=C2N=C1)O)N=NC3=CC4=C(C=C3)C=C(C=C4)S(=O)(=O)O)S(=O)(=O)O + CS(=O)(=O)CCNCc1ccc(-c2ccc3ncnc(Nc4ccc(OCc5cccc(F)c5)c(Cl)c4)c3c2)o1 [Lapatinib] (partner 2 µM)
Outline: as §1

Cell Line	relative viability (AT-7519 + Phenformin; first compound 0.01 µM)	relative viability (AT-7519 + Phenformin; first compound 0.03162 µM)	relative viability (AT-7519 + Phenformin; first compound 0.3162 µM)	relative viability (AT-7519 + Phenformin; first compound 1 µM)	relative viability (AT-7519 + Palbociclib; first compound 0.01 µM)	relative viability (AT-7519 + Palbociclib; first compound 0.03162 µM)	relative viability (AT-7519 + Palbociclib; first compound 0.3162 µM)	relative viability (AT-7519 + Palbociclib; first compound 1 µM)	relative viability (AT-7519 + Luminespib; first compound 0.01 µM)	relative viability (AT-7519 + Luminespib; first compound 0.03162 µM)	relative viability (AT-7519 + Luminespib; first compound 0.3162 µM)	relative viability (AT-7519 + Luminespib; first compound 1 µM)	relative viability ([1]; first compound 0.08 µM)	relative viability ([1]; first compound 0.253 µM)	relative viability ([1]; first compound 0.8 µM)	relative viability ([1]; first compound 2.53 µM)	relative viability ([1]; first compound 8 µM)
NCI-H1944	0.234	0.207	0.197	0.182	0.314	0.322	0.292	0.268	0.846	0.775	0.677	0.554	0.8	0.753	0.765	0.753	0.565
LU99A	0.826	0.769	0.802	0.724	0.443	0.411	0.389	0.329	0.274	0.221	0.223	0.193	0.934	0.974	0.949	0.972	1.14
SW 1573	0.421	0.349	0.236	0.0778	0.38	0.368	0.212	0.109	0.223	0.203	0.149	0.126	1.05	1	1.04	1.14	0.353
NCI-H2347	0.281	0.388	0.582	0.185	0.397	0.44	0.469	0.374	0.83	0.268	0.392	0.39	1.05	0.921	0.839	0.882	0.824
NCI-H2009	0.521	0.451	0.472	0.276	0.209	0.2	0.19	0.18	1.03	1.03	1.02	0.881	0.898	0.889	0.871	0.884	0.836
HCC-15	0.468	0.422	0.401	0.241	0.779	0.717	0.618	0.537	0.293	0.413	0.343	0.214	0.963	0.841	0.843	0.832	0.888
HCC-44	0.15	0.199	0.154	0.205	0.975	0.961	0.965	0.901	1.13	1.03	0.636	0.235	1.08	0.975	0.96	1.05	1.09
COR-L23	0.459	0.412	0.287	0.144	0.306	0.28	0.265	0.157	1	0.867	0.273	0.116	1.3	0.971	0.92	1	1.15
HCC-78	0.712	0.604	0.596	0.662	0.423	0.431	0.611	0.479					0.763	0.625	0.702	0.922	0.192
NCI-H1299													0.959	0.913	0.944	0.956	0.939
